Test results as given in ChEMBL document CHEMBL5370592, “Synthesis and Structure-Activity Relationships of a New Class of Oxadiazoles Targeting DprE1 as Antitubercular Agents” (ACS Med Chem Lett, 2023).
Converted amounts (≈) assume the structure as drawn. The source made the active and inactive calls. The rule behind the calls is not given here.

Assays:
[1] = test system: Mycobacterium tuberculosis; experiment: Antitubercular activity against Mycobacterium tuberculosis H37Rv ATCC 27294 assessed as inhibition of bacterial growth cultured in Middlebrook 7H9/glucose/casitone/tyloxapol medium for 2 weeks; type: functional; settings: H37Rv ATCC 27294, 336 h
[2] = Cytotoxicity against human HepG2 cells assessed as reduction in cell viability incubated for 24 hrs in DMEM/10% FBS supplemented with galactose by CellTiter-Glo luminescent assay; type: toxicity, cell-based
[3] = test system: Mycobacterium tuberculosis; experiment: Antitubercular activity against Mycobacterium tuberculosis H37Rv ATCC 27294 assessed as inhibition of bacterial growth cultured in Middlebrook 7H9/BSA/Tyloxapol with glucose medium for 2 weeks; type: functional; settings: H37Rv ATCC 27294, 336 h
[4] = Cytotoxicity against human HepG2 cells assessed as reduction in cell viability incubated for 24 hrs in DMEM/10% FBS supplemented with glucose by CellTiter-Glo luminescent assay; type: toxicity, cell-based
[5] = test system: Mycobacterium tuberculosis; experiment: Antitubercular activity against Mycobacterium tuberculosis H37Rv ATCC 27294 assessed as inhibition of bacterial growth cultured in Middlebrook 7H9/ADC/Tween 80 with cydC::aph medium for 2 weeks; type: functional; settings: H37Rv ATCC 27294, 336 h
[6] = test system: Mycobacterium tuberculosis; experiment: Antitubercular activity against Mycobacterium tuberculosis H37RV ATCC 27294 assessed as inhibition of bacterial growth cultured in Middlebrook 7H9/cholesterol/BSA/Tyloxapol medium for 2 weeks; type: functional; settings: H37Rv ATCC 27294, 336 h
[7] = test system: Mycobacterium tuberculosis; experiment: Induction of DNA damage in Mycobacterium tuberculosis H37Rv transfected with PradA-LUX reporter assessed as induction of radA reporter gene expression incubated for 12 days by bioluminescence analysis; type: functional, organism-based; settings: time 12.0 day
[8] = test system: Mycobacterium tuberculosis; experiment: Induction of DNA damage in Mycobacterium tuberculosis H37Rv transfected with PrecA-LUX reporter assessed as induction of recA reporter gene expression incubated for 12 days by bioluminescence analysis; type: functional, organism-based; settings: time 12.0 day
[9] = test system: Mycobacterium tuberculosis; experiment: Antitubercular activity against Mycobacterium tuberculosis H37Rv ATCC 27294 assessed as inhibition of bacterial growth cultured in Middlebrook 7H9/DPPC/cholesterol/BSA/Tyloxapol medium for 2 weeks; type: functional; settings: H37Rv ATCC 27294, 336 h
[10] = test system: Mycobacterium tuberculosis; experiment: Antitubercular activity against Mycobacterium tuberculosis H37Rv ATCC 27294 assessed as inhibition of bacterial growth cultured in Middlebrook 7H9/ADC/Tween 80 medium for 2 weeks; type: functional; settings: H37Rv ATCC 27294, 336 h

## O=C(C1CCN(c2nnc(-c3ccccc3)o2)C1)N1CCC(Cc2ccccc2)CC1 (stereo unspecified)
[1]
  MIC: 6.3 µM (≈ 2.62 µg/mL)
[2]
  IC50 at 24 h: > 50 µM
[3]
  MIC: 50 µM (≈ 20.8 µg/mL)
[4]
  IC50 at 24 h: > 50 µM

## O=C(C1CCN(c2nnc(-c3ccccc3)o2)CC1)N1CCC(Oc2ccccc2)CC1
[1]
  MIC: 2.3 µM (≈ 0.995 µg/mL)
[2]
  IC50 at 24 h: 37.5 µM
[3]
  MIC: 4.7 µM (≈ 2.03 µg/mL)
[4]
  IC50 at 24 h: 37.5 µM

## O=C(C1CCCN(c2nnc(-c3ccccc3)o2)C1)N1CCC(Cc2ccccc2)CC1 (stereo unspecified)
[1]
  MIC: 25 µM (≈ 10.8 µg/mL)
[2]
  IC50 at 24 h: 37.5 µM
[3]
  MIC: 50 µM (≈ 21.5 µg/mL)
[4]
  IC50 at 24 h: > 50 µM

## Cc1nnc(N2CCC(C(=O)N3CCC(Cc4ccccc4)CC3)CC2)o1
[1]
  MIC: > 50 µM
[2]
  IC50 at 24 h: > 50 µM
[3]
  MIC: > 50 µM
[4]
  IC50 at 24 h: > 50 µM

## O=C(C1CCN(c2nnc(-c3ccc(F)cc3)o2)CC1)N1CCC(Cc2ccccc2)CC1
[1]
  MIC: 0.15 µM (≈ 0.0673 µg/mL)
[2]
  IC50 at 24 h: > 50 µM
[3]
  MIC: 1.2 µM (≈ 0.538 µg/mL)
[4]
  IC50 at 24 h: > 50 µM

## CC(c1ccccc1)C1CCN(C(=O)C2CCN(c3nnc(-c4ccccc4)o3)CC2)CC1 (stereo unspecified)
[1]
  MIC: 0.2 µM (≈ 0.0889 µg/mL)
[2]
  IC50 at 24 h: > 50 µM
[3]
  MIC: 1.56 µM (≈ 0.694 µg/mL)
[4]
  IC50 at 24 h: > 50 µM

## O=C(C1CCN(c2nnc(-c3ccccc3)o2)CC1)N1CCC(=Cc2ccccc2)CC1
[1]
  MIC: 0.3 µM (≈ 0.129 µg/mL)
[2]
  IC50 at 24 h: 37.5 µM
[3]
  MIC: 2.3 µM (≈ 0.986 µg/mL)
[4]
  IC50 at 24 h: > 50 µM

## CCCCCC[C@H]1C(=O)O[C@H](C)[C@H](NC(=O)c2cccc(NC=O)c2O)C(=O)O[C@@H](C)[C@@H]1OC(=O)CC(C)C [ANTIMYCIN A]
[2]
  IC50 at 24 h: 0.12 µM
[4]
  IC50 at 24 h: > 250 µM

## O=C(NCc1ccccc1)C1CCN(c2nnc(-c3ccccc3)o2)CC1
[1]
  MIC: 25 µM (≈ 9.06 µg/mL)
[2]
  IC50 at 24 h: > 50 µM
[3]
  MIC: > 50 µM
[4]
  IC50 at 24 h: > 50 µM

## O=C(C1CCN(c2nnc(-c3ccccc3)o2)CC1)N1CCC(CC2CCCCC2)CC1
[1]
  MIC: 0.05 µM (≈ 0.0218 µg/mL)
[2]
  IC50 at 24 h: > 50 µM
[3]
  MIC: 0.2 µM (≈ 0.0873 µg/mL)
[4]
  IC50 at 24 h: > 50 µM

## O=C(C1CCN(c2nnc(-c3ccccc3)o2)CC1)N1CCC(Cc2ccc(C(F)(F)F)cc2)CC1
[1]
  MIC: 0.1 µM (≈ 0.0499 µg/mL)
[2]
  IC50 at 24 h: 37.5 µM
[3]
  MIC: 0.3 µM (≈ 0.15 µg/mL)
[4]
  IC50 at 24 h: > 50 µM

## CC(C)(C)C1CCN(C(=O)C2CCN(c3nnc(-c4ccccc4)o3)CC2)CC1
[1]
  MIC: 1.2 µM (≈ 0.476 µg/mL)
[2]
  IC50 at 24 h: > 50 µM
[3]
  MIC: 4.7 µM (≈ 1.86 µg/mL)
[4]
  IC50 at 24 h: > 50 µM

## CC(C)C1CCN(C(=O)C2CCN(c3nnc(-c4ccccc4)o3)CC2)CC1
[1]
  MIC: 2.3 µM (≈ 0.88 µg/mL)
[2]
  IC50 at 24 h: > 50 µM
[3]
  MIC: 4.7 µM (≈ 1.8 µg/mL)
[4]
  IC50 at 24 h: > 50 µM

## CN1CCN(C(=O)C2CCN(c3nnc(-c4ccccc4)o3)CC2)CC1
[1]
  MIC: > 50 µM
[2]
  IC50 at 24 h: > 50 µM
[3]
  MIC: > 50 µM
[4]
  IC50 at 24 h: > 50 µM

## O=C(C1CCN(c2nnc(-c3ccccc3)o2)CC1)N1CCCC(Cc2ccccc2)C1 (stereo unspecified)
[1]
  MIC: 25 µM (≈ 10.8 µg/mL)
[2]
  IC50 at 24 h: 37.5 µM
[3]
  MIC: 50 µM (≈ 21.5 µg/mL)
[4]
  IC50 at 24 h: > 50 µM

## O=C(C1CCN(c2nnc(-c3ccccc3)o2)CC1)N1CCC(c2ccccc2)CC1
[1]
  MIC: 2.3 µM (≈ 0.958 µg/mL)
[2]
  IC50 at 24 h: 37.5 µM
[3]
  MIC: 4.7 µM (≈ 1.96 µg/mL)
[4]
  IC50 at 24 h: > 50 µM

## O=C(CC1CCN(c2nnc(-c3ccccc3)o2)CC1)N1CCC(Cc2ccccc2)CC1
[1]
  MIC: 4.7 µM (≈ 2.09 µg/mL)
[2]
  IC50 at 24 h: 37.5 µM
[3]
  MIC: 12.5 µM (≈ 5.56 µg/mL)
[4]
  IC50 at 24 h: > 50 µM

## O=C(C1CCN(c2noc(-c3ccccc3)n2)CC1)N1CCC(Cc2ccccc2)CC1
[1]
  MIC: 0.3 µM (≈ 0.129 µg/mL)
[2]
  IC50 at 24 h: 37.5 µM
[3]
  MIC: 1.2 µM (≈ 0.517 µg/mL)
[4]
  IC50 at 24 h: > 50 µM

## O=C(C1CCN(c2nnc(-c3ccccc3)o2)CC1)N1CCCCC1
[1]
  MIC: > 50 µM
[2]
  IC50 at 24 h: > 50 µM
[3]
  MIC: > 50 µM
[4]
  IC50 at 24 h: > 50 µM

## O=S(=O)(C1CCN(c2nnc(-c3ccccc3)o2)CC1)N1CCC(Cc2ccccc2)CC1
[1]
  MIC: 12.5 µM (≈ 5.83 µg/mL)
[2]
  IC50 at 24 h: 37.5 µM
[3]
  MIC: > 50 µM
[4]
  IC50 at 24 h: > 50 µM

## O=C(C1CCN(c2nnc(-c3ccncc3)o2)CC1)N1CCC(Cc2ccccc2)CC1
[1]
  MIC: 0.39 µM (≈ 0.168 µg/mL)
[2]
  IC50 at 24 h: 37.5 µM
[3]
  MIC: 1.2 µM (≈ 0.518 µg/mL)
[4]
  IC50 at 24 h: > 50 µM

## O=C(C1CCN(c2nnc(-c3ccccc3)s2)CC1)N1CCC(Cc2ccccc2)CC1
[1]
  MIC: 0.3 µM (≈ 0.134 µg/mL)
[2]
  IC50 at 24 h: 37.5 µM
[3]
  MIC: 1.2 µM (≈ 0.536 µg/mL)
[4]
  IC50 at 24 h: > 50 µM

## O=C(C1CCN(c2nnc(-c3ccccc3)o2)CC1)N1CCC(C(F)(F)F)CC1
[1]
  MIC: 0.2 µM (≈ 0.0817 µg/mL)
[2]
  IC50 at 24 h: > 50 µM
[3]
  MIC: 1.56 µM (≈ 0.637 µg/mL)
[4]
  IC50 at 24 h: > 50 µM

## O=C(C1CCN(c2nnc(-c3ccccc3)o2)CC1)N1CCc2ccccc2C1
[1]
  MIC: 37 µM (≈ 14.4 µg/mL)
[2]
  IC50 at 24 h: > 50 µM
[3]
  MIC: 50 µM (≈ 19.4 µg/mL)
[4]
  IC50 at 24 h: > 50 µM

## O=C(c1ccccc1)C1CCN(C(=O)C2CCN(c3nnc(-c4ccccc4)o3)CC2)CC1
[1]
  MIC: 4.7 µM (≈ 2.09 µg/mL)
[2]
  IC50 at 24 h: 37.5 µM
[3]
  MIC: 9.4 µM (≈ 4.18 µg/mL)
[4]
  IC50 at 24 h: > 50 µM

## CCN(CC)C(=O)C1CCN(c2nnc(-c3ccccc3)o2)CC1
[1]
  MIC: > 50 µM
[2]
  IC50 at 24 h: > 50 µM
[3]
  MIC: > 50 µM
[4]
  IC50 at 24 h: > 50 µM

## NNC(=O)c1ccncc1 [ISONIAZID]
[1]
  MIC: 0.1 µM (≈ 0.0137 µg/mL)
[5]
  MIC: 0.39 µM (≈ 0.0535 µg/mL)
[6]
  MIC: 0.39 µM (≈ 0.0535 µg/mL)
[3]
  MIC: 0.16 µM (≈ 0.0219 µg/mL)
[7]
  Activity: inactive
[8]
  Activity: inactive
[9]
  MIC: 0.2 µM (≈ 0.0274 µg/mL)
[10]
  MIC: 0.2 µM (≈ 0.0274 µg/mL)

## O=C(C1CCN(c2nnc(-c3ccccc3)o2)CC1)N1CCC(Cc2ccccc2)C1 (stereo unspecified)
[1]
  MIC: 6.25 µM (≈ 2.6 µg/mL)
[2]
  IC50 at 24 h: 37.5 µM
[3]
  MIC: 9.4 µM (≈ 3.92 µg/mL)
[4]
  IC50 at 24 h: > 50 µM

## O=C(C1CCN(c2nnc(-c3ccc(C(F)(F)F)cc3)o2)CC1)N1CCC(Cc2ccccc2)CC1
[1]
  MIC: > 50 µM
[2]
  IC50 at 24 h: > 50 µM
[3]
  MIC: > 50 µM
[4]
  IC50 at 24 h: > 50 µM

## O=C(C1CCN(c2nnc(-c3ccccc3)o2)CC1)N1CCN(Cc2ccccc2)CC1
[1]
  MIC: 25 µM (≈ 10.8 µg/mL)
[2]
  IC50 at 24 h: > 50 µM
[3]
  MIC: 50 µM (≈ 21.6 µg/mL)
[4]
  IC50 at 24 h: > 50 µM

## O=C(NC1CCC(Cc2ccccc2)CC1)C1CCN(c2nnc(-c3ccccc3)o2)CC1 (stereo unspecified)
[1]
  MIC: 4.7 µM (≈ 2.09 µg/mL)
[2]
  IC50 at 24 h: > 50 µM
[3]
  MIC: > 50 µM
[4]
  IC50 at 24 h: > 50 µM
